Experimental data as given in US20100003217A1, “Compounds and Pharmaceutical Compositions for the Treatment of Viral Infections” (priority 2008, published 2010).
Where “and” joins values, the source holds several entries; their conditions need not be identical. Identical values can stand only once.

System: Huh-7 cells
Test: Metabolic disposition of [^14C]-Compound 1 and [^14C]-2′-C-methyl guanosine in Huh-7 cells (incubation medium, cellular extracts, nucleotide levels)
Assay type: in vitro ADME, human
Details: for Major metabolites observed in cellular extracts (% of total radioactivity) / 2′-C-methyl guanosine nucleotide levels in cellular extracts: Huh7; for % Residual [^14C]-Compound 1 in incubation medium / metabolites observed in medium (% of total radioactivity): Huh7 cells (n=2); for % Residual [^14C]-Compound 1 in incubation medium: 10 μM
Method: Huh-7 cells: Confluent monolayers of Huh-7 cells were dispersed using trypsin-EDTA, rinsed and pelleted by centrifugation at 1,000 rpm (Beckman, Model Allegra 6R). Cells were resuspended at 0.2, 0.3 and 0.4×10^6 cells/mL of medium (DMEM supplemented with 1% pyruvate, 10% FBS, 0.5% penicillin-streptomycin, 1% L-glutamine, 1% non-essential amino acids and 22 mM HEPES). Multi-well collagen I-coated plates (rat tail collagen type I; 6-well) were then seeded by addition of 2.0 mL of cell suspension to achieve final cell density of 0.4, 0.6 and 0.8×10^6 cells/well and placed in an incubator at 37° C. overnight to allow cells to attach and acclimatize to culture and the medium. Duplicate plates were prepared with the same cell density for cell number determination at each time point.
Huh-7 incubations were conducted in a final volume of 2.0 mL Huh7 culture medium/well ([…]). Culture medium from overnight incubation of cells was removed and replaced with fresh culture medium, pre-warmed to 37° C. containing [^14C]-Compound 1 or [^14C]-2′-C-methyl guanosine as described above for primary hepatocytes. After 24, 48 and 72 hours, 0.5-1.0 mL of incubation medium was removed and stored at −20° C. until analysis (described below). The remaining medium was discarded and cell monolayers processed and extracted as described above.
Preliminary identification of putative metabolites was conducted by comparing the retention time of observed metabolites in incubation medium and cellular extracts with retention times obtained with chemically synthesized standards using the chromatography conditions described below. Further identification of 2′-C-methyl guanosine nucleotides (mono-, di- and triphosphate) was carried out by incubating cellular extract samples with alkaline phosphatase (10 units for 60 min at 37° C.) and comparing the HPLC retention times of the resulting nucleosides with that of authentic 2′-C-methyl guanosine.
Cellular extracts were prepared by centrifugation at 16,000 RCF using an Eppendorf microcentrifuge (Eppendorf, Model 5415D) for 10 min to remove cellular debris. An aliquot of 5-10 μL of the supernatant was added to 5 mL of EcoLite™ (MP, Irvine, Calif.) liquid scintillation cocktail and radioactivity measured by liquid scintillation counting (LSC) using a Beckman Coulter LS6500 multipurpose liquid scintillation counter (Beckman Instruments, Fullerton, Calif.). The remaining sample was then dried using a Labconco refrigerated centrivap concentrator (Labconco, Kansas City, Mo.). Dry extracts were reconstituted in 120 μL of HPLC-grade water and centrifuged at 16,000 RCF using an Eppendorf microcentrifuge for 10 min. Prior to HPLC analysis (described below), radioactivity of the concentrated extracts was measured by LSC using 5 μL aliquots. Extraction recovery was then determined by comparing total radioactivity in extracts before and after drying. The remaining extract was then analyzed by HPLC with online radioactivity detection using a Flow Scintillation Analyzer Radiomatic™ 515TR. Radioactivity in the separated components was quantified by integrating the peaks using Flo-One™ Software (Perkin Elmer Life Sciences). Samples with poor recovery (<85%) were re-analyzed when possible.
Incubation medium samples were thawed at room temperature, vortexed and centrifuged at 16,000 RCF using an Eppendorf microcentrifuge. An aliquot of 10 μL was added to 5 mL of EcoLite™ (MP, Irvine, Calif.) liquid scintillation cocktail and radioactivity measured by LSC using a Beckman Coulter LS6500 multipurpose liquid scintillation counter (Beckman Instruments, Fullerton, Calif.). Samples (50-100 μL) were then analyzed by HPLC (described below) with online radioactivity detection using a Flow Scintillation Analyzer Radiomatic™ 515TR. Radioactivity in the separated components was quantified by integrating the peaks using Flo-One™ Software (Perkin Elmer Life Sciences). Samples with poor recovery (<85%) were re-analyzed when possible. […]

[1] = 10 μM [^14C]-Compound 1, 24 h, first series
[2] = 10 μM [^14C]-Compound 1, 24 h, second series
[3] = 10 μM [^14C]-Compound 1, 48 h, first series
[4] = 10 μM [^14C]-Compound 1, 48 h, second series
[5] = 10 μM [^14C]-Compound 1, 72 h, first series
[6] = 10 μM [^14C]-Compound 1, 72 h, second series
[7] = 10 μM [^14C]-2′-C-methyl guanosine, 24 h
[8] = 10 μM [^14C]-2′-C-methyl guanosine, 48 h
[9] = 10 μM [^14C]-2′-C-methyl guanosine, 72 h

SMILES | Major metabolites observed in cellular extracts (% of total radioactivity) [1] | Major metabolites observed in cellular extracts (% of total radioactivity) [2] | Major metabolites observed in cellular extracts (% of total radioactivity) [3] | Major metabolites observed in cellular extracts (% of total radioactivity) [4] | Major metabolites observed in cellular extracts (% of total radioactivity) [5] | Major metabolites observed in cellular extracts (% of total radioactivity) [6] | Major metabolites observed in cellular extracts (% of total radioactivity) [7] | Major metabolites observed in cellular extracts (% of total radioactivity) [8] | Major metabolites observed in cellular extracts (% of total radioactivity) [9] | further results
CC(C)(CO)C(=O)SCCOP(=O)(NCc1ccccc1)OC[C@H]1O[C@@H](n2cnc3c(=O)[nH]c(N)nc32)[C@](C)(O)[C@@H]1O (mixture of isomers) [Compound 1, 3-hydroxy-2,2-dimethyl-thiopropionic acid S-(2-{[(2R,3R,4R,5R)-5-(2-amino-6-oxo-1,6-dihydro-purin-9-yl)-3,4-dihydroxy-4-methyl-tetrahydro-furan-2-ylmethoxy]-benzylamino-phosphoryloxy}-ethyl) ester] | 40.3 % of total radioactivity | 10.4 % of total radioactivity | 15.8 % of total radioactivity | 21.2 % of total radioactivity | 14.1 % of total radioactivity | 16.2 % of total radioactivity |  |  |  | % Residual [^14C]-Compound 1 in incubation medium (0 h): 98% and 96%; % Residual [^14C]-Compound 1 in incubation medium (24 h): 86% and 85%; % Residual [^14C]-Compound 1 in incubation medium (48 h): 76% and 77%; % Residual [^14C]-Compound 1 in incubation medium (72 h): 67% and 65% and 68%; unchanged Compound 1, % of the total radioactivity (Huh7 cells, after 72 hours incubation with [^14C]-Compound 1): 15%
C[C@@]1(O)[C@H](O)[C@@H](CO)O[C@H]1n1cnc2c(=O)[nH]c(N)nc21 [2′-C-methyl guanosine, 9-(2-C-methyl-β-D-ribofuranosyl)guanine, reference compound] | BLD^a (BLD = below limit of detection (30 DPM)) | BLD^a (BLD = below limit of detection (30 DPM)) | BLD (BLD = below limit of detection (30 DPM)) | 2.65 % of total radioactivity | BLD (BLD = below limit of detection (30 DPM)) | BLD (BLD = below limit of detection (30 DPM)) | 89.5 % of total radioactivity | 89.3 % of total radioactivity | 89.6 % of total radioactivity | metabolites in the incubation medium following incubation with [^14C]-2′-C-methyl guanosine (Huh7 cells): No metabolites were observed; metabolites observed in medium (% of total radioactivity) (10 μM [^14C]-Compound 1, 0 h): BLD and BLD^a; metabolites observed in medium (% of total radioactivity) (10 μM [^14C]-Compound 1, 24 h): 2.2% and 1.10% and 1.2%; metabolites observed in medium (% of total radioactivity) (10 μM [^14C]-Compound 1, 48 h): 2.7% and 0.5%; metabolites observed in medium (% of total radioactivity) (10 μM [^14C]-Compound 1, 72 h): 2% and 2.3% and 1.5%
C[C@@]1(O)[C@H](O)[C@@H](COP(=O)(O)OP(=O)(O)O)O[C@H]1n1cnc2c(=O)[nH]c(N)nc21 [Compound 6, [(2R)-2-methyl-β-D-ribofuranosyl]guanine 5′-diphosphate] | BLD (BLD = below limit of detection (30 DPM)) | 7.55 % of total radioactivity | 6.14 % of total radioactivity | 6.42 % of total radioactivity | 6.86 % of total radioactivity | 8.44 % of total radioactivity | BLD (BLD = below limit of detection (30 DPM)) | 3.56 % of total radioactivity | BLD (BLD = below limit of detection (30 DPM)) | 2′-C-methyl guanosine nucleotide levels in cellular extracts (10 μM [^14C]-2′-C-methyl guanosine, 0 h, n = 1): 0 pmol/million cells; 2′-C-methyl guanosine nucleotide levels in cellular extracts (10 μM [^14C]-2′-C-methyl guanosine, 24 h, n = 1): BLD (BLD = below limit of detection (0.02 pmol/million cells)); 2′-C-methyl guanosine nucleotide levels in cellular extracts (10 μM [^14C]-2′-C-methyl guanosine, 48 h, n = 1): BLD (BLD = below limit of detection (0.02 pmol/million cells)); 2′-C-methyl guanosine nucleotide levels in cellular extracts (10 μM [^14C]-2′-C-methyl guanosine, 72 h, n = 1): BLD (BLD = below limit of detection (0.02 pmol/million cells)); 2′-C-methyl guanosine nucleotide levels in cellular extracts (10 μM [^14C]-Compound 1, 0 h, replicate 1 of n = 2): 0 pmol/million cells; 2′-C-methyl guanosine nucleotide levels in cellular extracts (10 μM [^14C]-Compound 1, 0 h, replicate 2 of n = 2): 0 pmol/million cells; 2′-C-methyl guanosine nucleotide levels in cellular extracts (10 μM [^14C]-Compound 1, 24 h, replicate 1 of n = 2): 2.20 pmol/million cells; 2′-C-methyl guanosine nucleotide levels in cellular extracts (10 μM [^14C]-Compound 1, 24 h, replicate 2 of n = 2): 0 pmol/million cells; 2′-C-methyl guanosine nucleotide levels in cellular extracts (10 μM [^14C]-Compound 1, 48 h, replicate 1 of n = 2): 1.60 pmol/million cells; 2′-C-methyl guanosine nucleotide levels in cellular extracts (10 μM [^14C]-Compound 1, 48 h, replicate 2 of n = 2): 1.40 pmol/million cells; 2′-C-methyl guanosine nucleotide levels in cellular extracts (10 μM [^14C]-Compound 1, 72 h, replicate 1 of n = 2): 1.60 pmol/million cells; 2′-C-methyl guanosine nucleotide levels in cellular extracts (10 μM [^14C]-Compound 1, 72 h, replicate 2 of n = 2): 1.10 pmol/million cells
